Results taken from the NIST ThermoML archive (doi:10.1016/j.jct.2012.06.012).

Test: xn = mol fraction of the nth substance listed
Details: Liquid, Vibrating tube method

CCCCCCCCCC [decane] + CCO
Details | mass density [kg/m3]
342.86 K, 16000 kPa, x2 = 0.7526 | 727.54
342.86 K, 16000 kPa, x2 = 0.9014 | 742.82
342.86 K, 17000 kPa, x2 = 0.7526 | 728.5
342.86 K, 17000 kPa, x2 = 0.9014 | 743.79
342.86 K, 18000 kPa, x2 = 0.7526 | 729.43
342.86 K, 18000 kPa, x2 = 0.9014 | 744.74
342.86 K, 19000 kPa, x2 = 0.7526 | 730.35
342.86 K, 19000 kPa, x2 = 0.9014 | 745.67
342.86 K, 20000 kPa, x2 = 0.7526 | 731.26
342.86 K, 20000 kPa, x2 = 0.9014 | 746.59
342.93 K, 1000 kPa, x2 = 0.2507 | 693.16
342.93 K, 2000 kPa, x2 = 0.2507 | 694.23
342.93 K, 3000 kPa, x2 = 0.2507 | 695.28
342.93 K, 4000 kPa, x2 = 0.2507 | 696.32
342.93 K, 5000 kPa, x2 = 0.2507 | 697.34
342.93 K, 6000 kPa, x2 = 0.2507 | 698.35
342.93 K, 7000 kPa, x2 = 0.2507 | 699.37
342.93 K, 8000 kPa, x2 = 0.2507 | 700.38
342.93 K, 9000 kPa, x2 = 0.2507 | 701.37
342.93 K, 10000 kPa, x2 = 0.2507 | 702.36
342.93 K, 11000 kPa, x2 = 0.2507 | 703.34
342.93 K, 12000 kPa, x2 = 0.2507 | 704.32
342.93 K, 13000 kPa, x2 = 0.2507 | 705.28
342.93 K, 14000 kPa, x2 = 0.2507 | 706.23
342.93 K, 15000 kPa, x2 = 0.2507 | 707.16
342.93 K, 16000 kPa, x2 = 0.2507 | 708.07
342.93 K, 17000 kPa, x2 = 0.2507 | 708.97
342.93 K, 18000 kPa, x2 = 0.2507 | 709.85
342.93 K, 19000 kPa, x2 = 0.2507 | 710.72
342.93 K, 20000 kPa, x2 = 0.2507 | 711.57
352.68 K, 1000 kPa, x2 = 0.9014 | 717.22
352.68 K, 2000 kPa, x2 = 0.9014 | 718.43
352.68 K, 3000 kPa, x2 = 0.9014 | 719.64
352.68 K, 4000 kPa, x2 = 0.9014 | 720.84
352.68 K, 5000 kPa, x2 = 0.9014 | 722.04
352.68 K, 6000 kPa, x2 = 0.9014 | 723.23
352.68 K, 7000 kPa, x2 = 0.9014 | 724.41
352.68 K, 8000 kPa, x2 = 0.9014 | 725.57
352.68 K, 9000 kPa, x2 = 0.9014 | 726.72
352.68 K, 10000 kPa, x2 = 0.9014 | 727.86
352.68 K, 11000 kPa, x2 = 0.9014 | 728.99
352.68 K, 12000 kPa, x2 = 0.9014 | 730.09
352.68 K, 13000 kPa, x2 = 0.9014 | 731.17
352.68 K, 14000 kPa, x2 = 0.9014 | 732.26
352.68 K, 15000 kPa, x2 = 0.9014 | 733.32
352.68 K, 16000 kPa, x2 = 0.9014 | 734.36
352.68 K, 17000 kPa, x2 = 0.9014 | 735.39
352.68 K, 18000 kPa, x2 = 0.9014 | 736.4
352.68 K, 19000 kPa, x2 = 0.9014 | 737.39
352.68 K, 20000 kPa, x2 = 0.9014 | 738.36
352.69 K, 1000 kPa, x2 = 0.0937 | 683.22
352.69 K, 1000 kPa, x2 = 0.4963 | 689.92
352.69 K, 2000 kPa, x2 = 0.0937 | 684.34
352.69 K, 2000 kPa, x2 = 0.4963 | 691.07
352.69 K, 3000 kPa, x2 = 0.0937 | 685.44
352.69 K, 3000 kPa, x2 = 0.4963 | 692.22
352.69 K, 4000 kPa, x2 = 0.0937 | 686.53
352.69 K, 4000 kPa, x2 = 0.4963 | 693.37
352.69 K, 5000 kPa, x2 = 0.0937 | 687.61
352.69 K, 5000 kPa, x2 = 0.4963 | 694.5
352.69 K, 6000 kPa, x2 = 0.0937 | 688.68
352.69 K, 6000 kPa, x2 = 0.4963 | 695.63
352.69 K, 7000 kPa, x2 = 0.0937 | 689.74
352.69 K, 7000 kPa, x2 = 0.4963 | 696.75
352.69 K, 8000 kPa, x2 = 0.0937 | 690.8
352.69 K, 8000 kPa, x2 = 0.4963 | 697.86
352.69 K, 9000 kPa, x2 = 0.0937 | 691.83
352.69 K, 9000 kPa, x2 = 0.4963 | 698.96
352.69 K, 10000 kPa, x2 = 0.0937 | 692.86
352.69 K, 10000 kPa, x2 = 0.4963 | 700.06
352.69 K, 11000 kPa, x2 = 0.0937 | 693.89
352.69 K, 11000 kPa, x2 = 0.4963 | 701.13
352.69 K, 12000 kPa, x2 = 0.0937 | 694.89
352.69 K, 12000 kPa, x2 = 0.4963 | 702.2
352.69 K, 13000 kPa, x2 = 0.0937 | 695.89
352.69 K, 13000 kPa, x2 = 0.4963 | 703.25
352.69 K, 14000 kPa, x2 = 0.0937 | 696.87
352.69 K, 14000 kPa, x2 = 0.4963 | 704.28
352.69 K, 15000 kPa, x2 = 0.0937 | 697.83
352.69 K, 15000 kPa, x2 = 0.4963 | 705.29
352.69 K, 16000 kPa, x2 = 0.0937 | 698.77
352.69 K, 16000 kPa, x2 = 0.4963 | 706.29
352.69 K, 17000 kPa, x2 = 0.0937 | 699.71
352.69 K, 17000 kPa, x2 = 0.4963 | 707.26
352.69 K, 18000 kPa, x2 = 0.0937 | 700.63
352.69 K, 18000 kPa, x2 = 0.4963 | 708.23
352.69 K, 19000 kPa, x2 = 0.0937 | 701.52
352.69 K, 19000 kPa, x2 = 0.4963 | 709.17
352.69 K, 20000 kPa, x2 = 0.0937 | 702.39
352.69 K, 20000 kPa, x2 = 0.4963 | 710.11
